From article PMC4738246, “Conformational dynamics is key to understanding loss-of-function of NQO1 cancer-associated polymorphisms and its correction by pharmacological ligands” (Scientific Reports, 2016)
Where two headings read alike, the source gives them in different places.

Columns and labels:
[1] = target: T1, NQO1 WT (Homo sapiens, UniProt P15559); set-up: made in house; settings: FAD binding to WT, two-sequential binding sites model, average of two titrations, cited from earlier work
[2] = target: T2, NQO1 p.R139W (Homo sapiens, UniProt P15559, R139W); set-up: made in house; settings: FAD binding to p.R139W, two-sequential binding sites model, average of two titrations, cited from earlier work
T2 sequence (P15559 whole entry R139W): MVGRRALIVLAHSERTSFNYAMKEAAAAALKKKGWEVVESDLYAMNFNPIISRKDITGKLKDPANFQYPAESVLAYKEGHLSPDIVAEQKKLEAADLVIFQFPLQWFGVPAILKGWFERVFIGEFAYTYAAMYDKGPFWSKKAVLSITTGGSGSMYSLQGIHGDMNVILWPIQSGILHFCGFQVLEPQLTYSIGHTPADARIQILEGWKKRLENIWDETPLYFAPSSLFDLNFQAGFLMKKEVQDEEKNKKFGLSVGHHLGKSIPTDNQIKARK

[3] = target: T3, NQO1 p.P187S (Homo sapiens, UniProt P15559, P187S); set-up: made in house; settings: FAD binding to p.P187S; single set of sites model; average of two titrations; read-out: Kd1; cited from earlier work
T3 sequence (P15559 whole entry P187S): as the sequence (P15559 whole entry R139W) above, with W139R, P187S counted along it

[4] = target: T1, NQO1 WT; experiment: Proteolysis by thermolysin, WT NQO1; settings: WT apo-protein vs as purified
Description: (§2) Proteolysis was performed at 25 °C in HEPES-KOH 50 mM CaCl2 10 mM pH 7.4 using 20 μM in NQO1 (monomer), and the reaction was initiated by the addition of thermolysin (at a final concentration of 10 pM-1 μM) in a final volume of 200 μL. Proteolysis reactions were performed using the NQO1 proteins as purified or as apo-proteins. […] After normalization of the intensities using that of the control sample in the absence of thermolysin, the Intensity (I) vs. Time (t) profiles were analyzed using a single exponential function:
(§3) where k is the proteolysis rate constant and I0 the initial intensity.

[5] = target: T3, NQO1 p.P187S; experiment: Binding affinity by ITC, p.P187S NQO1; settings: FAD and dicoumarol stated together
Description: After peak integration, binding isotherms were analyzed using a one-type of independent sites model using the software provided by the manufacturer.

[6] = target: T2, NQO1 p.R139W; experiment: Proteolysis by thermolysin, p.R139W NQO1; settings: p.R139W apo-protein vs as purified
Description: as §2, §3

[7] = tested on: Caco-2 cells (homozygous for p.P187S); experiment: Steady-state NQO1 protein levels by immunoblotting, Caco-2 cells; format: cell-based, human; settings: 24 h, dicoumarol 100 μM, riboflavin 10 μM, normalized to untreated cells
Description: (§1) After transferring to polyvinylidene difluoride membranes (GE Healthcare), immunoblotting was carried out using primary monoclonal antibodies anti-NQO1 and anti-β-actin (Santa Cruz Biotechnology) from mouse at 1:500 and 1:10000 dilutions, respectively. As secondary antibody, we used goat anti-mouse IgG-HRP (Santa Cruz Biotechnology) at 1:1000 dilution. Chemiluminiscent detection of bands was carried out using Clarity™ Western ECL Blotting Substrate (Biorad) and analyzed using a luminescent image analyzer LAS-4000 mini (Fujifilm).

[8] = tested on: HCT 116 cells (heterozygous for p.R139W); settings: 24 h, dicoumarol 100 μM, riboflavin 10 μM
Description: as §1

[9] = tested on: HeLa cells (expressing WT NQO1); settings: 24 h, dicoumarol 100 μM, riboflavin 10 μM
Description: as §1

T1 sequence (P15559 whole entry): as the sequence (P15559 whole entry R139W) above, with W139R counted along it

increase in the sensitivity towards thermolysin on removal of FAD [4] [fold] | lower affinity of p.P187S than the WT enzyme [5] | increase in the sensitivity towards thermolysin on removal of FAD [6] [fold] | Compound | Kd ([1]; read-out: Kd1) [nM] | Kd ([1]; read-out: Kd2) [nM] | Kd ([2]; read-out: Kd1) [nM] | Kd ([2]; read-out: Kd2) [nM] | Kd [3] [nM] | enhancement of steady-state levels of p.P187S NQO1 protein [7] | effect on protein levels of p.R139W NQO1 [8] | effect on protein levels of WT NQO1 [9]
200 | 10–100 fold | 200 | Cc1cc2nc3c(=O)[nH]c(=O)nc-3n(C[C@H](O)[C@H](O)[C@H](O)COP(=O)(O)OP(=O)(O)OC[C@H]3O[C@@H](n4cnc5c(N)ncnc54)[C@H](O)[C@@H]3O)c2cc1C [FAD] | ~1 | 60 | ~3 | 70 | 400 | – | – | –
– | – | – | Cc1cc2nc3c(=O)[nH]c(=O)nc-3n(C[C@H](O)[C@H](O)[C@H](O)CO)c2cc1C [riboflavin] | – | – | – | – | – | much lower effect | small effects | small effects
